Measurements published in paper PMC11079064, “Discovery of a brain penetrant small molecule antagonist targeting LPA1 receptors to reduce neuroinflammation and promote remyelination in multiple sclerosis” (Scientific Reports, 2024).

Test system: MOG-EAE mouse model
Experiment: MOG-EAE mouse model, body weight and clinical score
Format: in vivo
Protocol: This model recapitulates several of the features thought to occur in MS and is a widely used model of inflammatory demyelination.
On Day 0, EAE was induced using a MOG35–55/CFA Emulsion PTX Hooke Kit™ (Hooke Laboratories, Lawrence, MA). Briefly, per manufacturer’s instructions, each mouse was administered a total of 0.2 ml emulsion delivered via dorsal subcutaneous injections of 0.1 ml each to the mid-scapula and lower lumbar regions. Pertussis toxin was prepared per lot-specific instructions and administered via intraperitoneal injection of 0.1 ml (200 ng) on Day 0, 2 h post-MOG administration, and again on Day 1, 24 h post-MOG.
Each treatment group contained 12 mice, except for the age-matched control group which contained 8 mice.
Body weights and clinical scores were recorded daily.

In the case of `COc1ccc(NC(=O)N(c2ccccc2C(C)C)C2CCC(C(=O)O)CC2)c(OC(F)F)n1` (stereo not shown) [PIPE-791], the “clinical score by day 24” value (0.3 mg/kg oral once daily) is reported as 1.5, the disease onset (0.3 mg/kg oral once daily) is reported as 14 days and the peak clinical score (0.3 mg/kg oral once daily) is reported as 2.1. For the same compound, the “clinical score at study end” value (3 mg/kg oral once daily) was 1.5, the disease onset (3 mg/kg oral once daily) was 14 days and the peak clinical score (3 mg/kg oral once daily) was 1.4. The “cumulative body weight (day 0 to 24)” value (0.3 and 3 mg/kg oral once daily) was “Significant increases”.
